Source: patent US20230146455A1, “TREATMENT OF INFLAMMATORY DISEASES WITH PEPTIDES AND PHARMACEUTICAL COMPOSITIONS” (Yuyu Pharma, Inc., priority 2020, published 2023)
“And” between values parts separate entries of the source, which are not always exact repeats. Equal entries are not always repeated. Where a SMILES comes first, the peptide text is derived from it. [ ]: non-standard residue; d: D form. Hyp = O=C(O)[C@@H]1C[C@@H](O)CN1

Test system: CCL2/JE/MCP-1
Test: Example 9 Luminex, LPS hPBMCs: CCL2/JE/MCP-1
Format: cell-based, human
Procedure: Treatment Human PBMCs were pretreated with YY-101, YDE-011 and YDE-043 or reference compound; Xiidra® at various concentration (ranging from 1 nM to 100 uM) for 2 h before stimulation. An equal volume of 0.5% DMSO was used as a vehicle control. Then, the cells were treated with LPS at 5 ug/ml. The supernatants from treated cells were harvested at 24 h and placed in a 96 well for Luminex cytokine & chemokine profiling using a Luminex 200 multiplex assay (Luminex; R&D system, USA).
The main study arm with triplicate wells per group in a 24-well plate: • 1. Blank • 2. PBMC: 0.5% DMSO • 3. PBMC+LPS (5 ug/ml) • 4. PBMC+YY-101 100 uM • 5. PBMC+YY-101 10 uM • 6. PBMC+YY-101 1 uM • 7. PBMC+YY-101 0.1 uM • 8. PBMC+YY-101 0.01 uM • 9. PBMC+LPS (5 ug/ml)+Xiidra®100 uM • 10. PBMC+LPS (5 ug/ml)+Xiidra® 10 uM • 11. PBMC+LPS (5 ug/ml)+Xiidra® 1 uM • 12. PBMC+LPS (5 ug/ml)+Xiidra®0.1 uM • 13. PBMC+LPS (5 ug/ml)+Xiidra®0.01 uM • 14. PBMC+LPS (5 ug/ml)+Xiidra®0.001 uM • 15. PBMC+LPS (5 ug/ml)+YY-101 100 uM • 16. PBMC+LPS (5 ug/ml)+YY-101 10 uM • 17. PBMC+LPS (5 ug/ml)+YY-101 1 uM • 18. PBMC+LPS (5 ug/ml)+YY-101 0.1 uM • 19. PBMC+LPS (5 ug/ml)+YY-101 0.01 uM • 20. PBMC+LPS (5 ug/ml)+YY-101 0.001 uM • 21. PBMC+LPS (5 ug/ml)+YDE-011 100 uM • 22. PBMC+LPS (5 ug/ml)+YDE-011 10 uM • 23. PBMC+LPS (5 ug/ml)+YDE-011 1 uM • 24. PBMC+LPS (5 ug/ml)+YDE-011 0.1 uM • 25. PBMC+LPS (5 ug/ml)+YDE-011 0.01 uM • 26. PBMC+LPS (5 ug/ml)+YDE-011 0.001 uM • 27. PBMC+LPS (5 ug/ml)+YDE-043 100 uM • 28. PBMC+LPS (5 ug/ml)+YDE-043 10 uM • 29. PBMC+LPS (5 ug/ml)+YDE-043 1 uM • 30. PBMC+LPS (5 ug/ml)+YDE-043 0.1 uM • 31. PBMC+LPS (5 ug/ml)+YDE-043 0.01 uM • 32. PBMC+LPS (5 ug/ml)+YDE-043 0.001 uM
Multiplex assay was used to measure 30 cytokines and chemokines. The 1:2, 1:10 and 1:200 diluted cell supernatant and serial dilution of the standard were dispensed into a 96 well plate at 50 ul/well. Then, the pre-mixed cocktail of antibody-coated magnetic beads was dispensed at 50 ul/well and incubated at room temperature for 2 h in a horizontal orbital microplate shaker at 800±500 rpm. The beads were washed using a magnetic device to prevent loss. The biotin-antibody was dispensed in 50 ul of each well and incubated at room temperature for 1 h in a shaker at 800±500 rpm. After washing, streptavidin-PE was added at 50 ul/well and incubated at room temperature for 30 min in a shaker under the same conditions. Finally, after washing, wash buffer (100 ul/well) was added to the plate and incubated in a shaker for 2 min. The Luminex™ 200 setting were set according to the manufacturer's protocol. The data was calculated with a standard five-parameter logistic nonlinear regression analysis of the data (xPonent software 4.2, USA). The levels of cytokine/chemokine are normalized to the live cell counts (1×10^5 cells/mL) and presented as concentrations per mL (pg/mL or ng/mL).

[1] = PBMC + LPS(5 ug/ml) + test article 0.001 uM, Mean
[2] = PBMC + LPS(5 ug/ml) + test article 0.001 uM, individual replicates
[3] = PBMC + LPS(5 ug/ml) + test article 0.01 uM, Mean
[4] = PBMC + LPS(5 ug/ml) + test article 0.01 uM, individual replicates
[5] = PBMC + LPS(5 ug/ml) + test article 0.1 uM, Mean
[6] = PBMC + LPS(5 ug/ml) + test article 0.1 uM, individual replicates
[7] = PBMC + LPS(5 ug/ml) + test article 1 uM, Mean
[8] = PBMC + LPS(5 ug/ml) + test article 1 uM, individual replicates
[9] = PBMC + LPS(5 ug/ml) + test article 10 uM, Mean
[10] = PBMC + LPS(5 ug/ml) + test article 10 uM, individual replicates
[11] = PBMC + LPS(5 ug/ml) + test article 100 uM, Mean
[12] = PBMC + LPS(5 ug/ml) + test article 100 uM, individual replicates
[13] = PBMC + test article 0.01 uM, no LPS, Mean
[14] = PBMC + test article 0.01 uM, no LPS, individual replicates
[15] = PBMC + test article 0.1 uM, no LPS, Mean
[16] = PBMC + test article 0.1 uM, no LPS, individual replicates
[17] = PBMC + test article 1 uM, no LPS, Mean
[18] = PBMC + test article 1 uM, no LPS, individual replicates
[19] = PBMC + test article 10 uM, no LPS, Mean
[20] = PBMC + test article 10 uM, no LPS, individual replicates
[21] = PBMC + test article 100 uM, no LPS, Mean
[22] = PBMC + test article 100 uM, no LPS, individual replicates

CC(C)C[C@H](NC(=O)CNC(=O)[C@H](CC(C)C)NC(=O)[C@H](CCC(N)=O)NC(=O)CNC(=O)[C@@H]1C[C@@H](O)CN1)C(=O)N[C@@H](C)C(=O)NCC(=O)N1CCC[C@H]1C(=O)N[C@@H](CCCCN)C(=O)O [YDE-011] (H-[Hyp]GQLGLAGPK-OH)
Concentration [1]: 1881.3 pg/mL
conc/live cell [1]: 355.2 pg/10^5
Concentration [2]: 1856.7 pg/mL and 1905.5 pg/mL and 1881.6 pg/mL
conc/live cell [2]: 412.6 pg/10^5 and 328.5 pg/10^5 and 324.4 pg/10^5
Concentration [3]: 1974.9 pg/mL
conc/live cell [3]: 339.7 pg/10^5
Concentration [4]: 1895.6 pg/mL and 2063.3 pg/mL and 1965.9 pg/mL
conc/live cell [4]: 300.9 pg/10^5 and 332.8 pg/10^5 and 385.5 pg/10^5
Concentration [5]: 1708.3 pg/mL
conc/live cell [5]: 300.6 pg/10^5
Concentration [6]: 1699.1 pg/mL and 1759.6 pg/mL and 1666.0 pg/mL
conc/live cell [6]: 257.4 pg/10^5 and 351.9 pg/10^5 and 292.3 pg/10^5
Concentration [7]: 1797.0 pg/mL
conc/live cell [7]: 358.5 pg/10^5
Concentration [8]: 1795.6 pg/mL and 1880.8 pg/mL and 1714.5 pg/mL
conc/live cell [8]: 326.5 pg/10^5 and 391.8 pg/10^5 and 357.2 pg/10^5
Concentration [9]: 1564.4 pg/mL
conc/live cell [9]: 297.3 pg/10^5
Concentration [10]: 1502.6 pg/mL and 1615.2 pg/mL and 1575.4 pg/mL
conc/live cell [10]: 278.3 pg/10^5 and 278.5 pg/10^5 and 335.2 pg/10^5
Concentration [11]: 281.9 pg/mL
conc/live cell [11]: 46.5 pg/10^5
Concentration [12]: 252.0 pg/mL and 301.1 pg/mL and 292.6 pg/mL
conc/live cell [12]: 41.3 pg/10^5 and 49.4 pg/10^5 and 48.8 pg/10^5

CC(C)C[C@H](NC(=O)[C@H](CCC(N)=O)NC(=O)CNC(=O)[C@@H]1C[C@@H](O)CN1)C(=O)NCC(=O)O [YDE-043] (H-[Hyp]GQLG-OH; N-terminus and C-terminus assumed)
Concentration [1]: 2109.3 pg/mL
conc/live cell [1]: 427.9 pg/10^5
Concentration [2]: 2082.8 pg/mL and 2215.5 pg/mL and 2029.7 pg/mL
conc/live cell [2]: 473.4 pg/10^5 and 369.2 pg/10^5 and 441.2 pg/10^5
Concentration [3]: 2023.7 pg/mL
conc/live cell [3]: 388.1 pg/10^5
Concentration [4]: 2036.2 pg/mL and 1963.4 pg/mL and 2071.4 pg/mL
conc/live cell [4]: 452.5 pg/10^5 and 297.5 pg/10^5 and 414.3 pg/10^5
Concentration [5]: 1922.5 pg/mL
conc/live cell [5]: 358.4 pg/10^5
Concentration [6]: 2109.9 pg/mL and 1768.2 pg/mL and 1889.5 pg/mL
conc/live cell [6]: 422.0 pg/10^5 and 315.8 pg/10^5 and 337.4 pg/10^5
Concentration [7]: 2123.4 pg/mL
conc/live cell [7]: 402.7 pg/10^5
Concentration [8]: 2174.1 pg/mL and 2114.7 pg/mL and 2081.5 pg/mL
conc/live cell [8]: 374.9 pg/10^5 and 440.6 pg/10^5 and 392.7 pg/10^5
Concentration [9]: 1799.9 pg/mL
conc/live cell [9]: 333.9 pg/10^5
Concentration [10]: 1889.0 pg/mL and 1766.4 pg/mL and 1744.2 pg/mL
conc/live cell [10]: 363.3 pg/10^5 and 327.1 pg/10^5 and 311.5 pg/10^5
Concentration [11]: 281.0 pg/mL
conc/live cell [11]: 44.6 pg/10^5
Concentration [12]: 258.9 pg/mL and 303.0 pg/mL
conc/live cell [12]: 41.8 pg/10^5 and 47.3 pg/10^5

CC(C)C[C@H](NC(=O)CNC(=O)[C@H](CC(=O)O)NC(=O)[C@H](CCC(N)=O)NC(=O)CNC(=O)[C@@H]1C[C@@H](O)CN1)C(=O)N[C@@H](C)C(=O)NCC(=O)N1CCC[C@H]1C(=O)N[C@@H](CCCCN)C(=O)O [YY-101] (H-[Hyp]GQDGLAGPK-OH; N-terminus and C-terminus assumed)
Concentration [1]: 3936.7 pg/mL
conc/live cell [1]: 612.8 pg/10^5
Concentration [2]: 3765.3 pg/mL and 3838.5 pg/mL and 4206.2 pg/mL
conc/live cell [2]: 660.6 pg/10^5 and 540.6 pg/10^5 and 637.3 pg/10^5
Concentration [3]: 4029.1 pg/mL
conc/live cell [3]: 653.6 pg/10^5
Concentration [4]: 4143.7 pg/mL and 4045.9 pg/mL and 3897.7 pg/mL
conc/live cell [4]: 647.5 pg/10^5 and 674.3 pg/10^5 and 639.0 pg/10^5
Concentration [5]: 3583.8 pg/mL
conc/live cell [5]: 616.4 pg/10^5
Concentration [6]: 3601.3 pg/mL and 3708.0 pg/mL and 3442.0 pg/mL
conc/live cell [6]: 580.9 pg/10^5 and 713.1 pg/10^5 and 555.2 pg/10^5
Concentration [7]: 4023.9 pg/mL
conc/live cell [7]: 619.0 pg/10^5
Concentration [8]: 3902.2 pg/mL and 3911.6 pg/mL and 4257.8 pg/mL
conc/live cell [8]: 619.4 pg/10^5 and 550.9 pg/10^5 and 686.7 pg/10^5
Concentration [9]: 3459.8 pg/mL
conc/live cell [9]: 524.3 pg/10^5
Concentration [10]: 3308.6 pg/mL and 3697.4 pg/mL and 3373.4 pg/mL
conc/live cell [10]: 551.4 pg/10^5 and 577.7 pg/10^5 and 443.9 pg/10^5
Concentration [11]: 598.6 pg/mL
conc/live cell [11]: 104.2 pg/10^5
Concentration [12]: 541.0 pg/mL and 629.1 pg/mL and 625.5 pg/mL
conc/live cell [12]: 85.9 pg/10^5 and 101.5 pg/10^5 and 125.1 pg/10^5
Concentration [13]: 3382.2 pg/mL
conc/live cell [13]: 692.4 pg/10^5
Concentration [14]: 1522.2 pg/mL and 5242.2 pg/mL
conc/live cell [14]: 292.7 pg/10^5 and 1092.1 pg/10^5
Concentration [15]: 2047.1 pg/mL
conc/live cell [15]: 389.7 pg/10^5
Concentration [16]: 1338.6 pg/mL and 2755.6 pg/mL
conc/live cell [16]: 304.2 pg/10^5 and 475.1 pg/10^5
Concentration [17]: 1790.1 pg/mL
conc/live cell [17]: 325.5 pg/10^5
Concentration [18]: 1471.3 pg/mL and 2108.8 pg/mL
conc/live cell [18]: 267.5 pg/10^5 and 383.4 pg/10^5
Concentration [19]: 7729.5 pg/mL
conc/live cell [19]: 1218.8 pg/10^5
Concentration [20]: 12584.2 pg/mL and 2874.9 pg/mL
conc/live cell [20]: 1966.3 pg/10^5 and 471.3 pg/10^5
Concentration [21]: 1095.4 pg/mL
conc/live cell [21]: 165.8 pg/10^5
Concentration [22]: 1394.1 pg/mL and 796.7 pg/mL
conc/live cell [22]: 217.8 pg/10^5 and 113.8 pg/10^5
